# Laboratory results: article PMC6274474, “Synthesis and Cytotoxic Activity on Human Cancer Cells of Novel Isoquinolinequinone–Amino Acid Derivatives” (Molecules, 2016)
# Read-outs that look alike come from different tables or passages of the source.
# Legend:
# [1] = tested on: AGS, SK-MES-1 and J82 human cancer cell lines; assay: MTT cytotoxicity, 72 h, panel summary (mean/range/selective index) over AGS, SK-MES-1, J82 vs MRC-5; type: cell-based; conditions: for IC50: Homo sapiens; for IC50 / MSI: Mean Selective Index = IC50 values for fibroblasts/IC50 values tumor cells: SK-MES-1, J82; for MSI: Mean Selective Index = IC50 values for fibroblasts/IC50 values tumor cells: MRC-5 vs AGS
# Description: (§1) The series of isoquinolinequinone amino ester conjugates (Table 1) and the bromine derivatives (Table 2) were evaluated for their in vitro cytotoxic activities against normal human lung fibroblast (MRC-5) and three human cancer cells lines: human gastric adenocarcinoma (AGS), human lung cancer (SK-MES-1), and human bladder carcinoma (J82), in 72 h drug exposure assays. The cytotoxic activities of the new compounds were measured using conventional microculture tetrazolium reduction assays. The cytotoxic activities of each of the quinones are expressed in terms of IC50.
# (§2) Cytotoxicity assay (Table 3 and Table 4). […] MRC-5, SK-MES-1, and J82 cells were grown in Eagle’s minimal essential medium (EMEM) containing 2 mM L-glutamine, 1 mM sodium pyruvate and 1.5 g/L sodium hydrogen carbonate. AGS cells were grown in Ham F-12 supplemented with 2 mM L-glutamine and 1.5 g/L sodium hydrogen carbonate. Finally, HL-60 cells were grown in RPMI medium. […] For the cytotoxicity experiments, cells were seeded into 96-well plates at a density of 50,000 cells/mL. After reaching confluence, cells were incubated for three days with compounds at varied concentrations ranging from 0 up to 100 μM while untreated cells (medium containing 1% DMSO) were used as controls. Cytotoxicity was assessed using the MTT (3-(4,5-dimethylthiazol-2-yl)-2,5-diphenyltetrazolium bromide) reduction assay. MTT was used at 1 mg/mL and the blue formazan crystals, formed during MTT reduction, were dissolved adding 100 μL of ethanol (acidified with HCl). The absorbance was measured at 550 nm using a Universal Microplate Reader (ELX 800, Bio-Tek Instruments Inc., Winooski, VT, USA). Values were the means of six replicates for each concentration and transformed to percentage of controls. The IC50 value was graphically obtained from the dose–response curves by adjusting them to a sigmoidal model (a + (b − a)/1 + 10(x − c)), where c = log IC50.
# [2] = tested on: AGS human gastric adenocarcinoma cells; assay: MTT cytotoxicity assay, 72 h, gastric adenocarcinoma cells; type: cell-based; conditions: 72 h exposure, six determinations, read-out: IC50 ± SEM AGS
# Description: as §1, §2
# [3] = tested on: MRC-5 normal human lung fibroblasts; assay: MTT cytotoxicity assay, 72 h, normal human lung fibroblasts; type: cell-based; conditions: for IC50: MRC5, normal human lung fibroblasts, MTT, 72 h exposure, six determinations, read-out: IC50 ± SEM MRC-5
# Description: as §1, §2
# [4] = tested on: SK-MES-1 human lung cancer cells; assay: MTT cytotoxicity assay, 72 h, lung cancer cells; type: cell-based; conditions: 72 h exposure, six determinations, read-out: IC50 ± SEM SK-MES-1
# Description: as §1, §2
# [5] = tested on: J82 human bladder carcinoma cells; assay: MTT cytotoxicity assay, 72 h, bladder carcinoma cells; type: cell-based; conditions: 72 h exposure, six determinations, read-out: IC50 ± SEM J82
# Description: as §1, §2
# [6] = tested on: MCF-7 (breast) human cancer cells; assay: MTT cytotoxicity assay, 48 h, breast cancer cells; type: cell-based; conditions: MCF7, three experiments, read-out: IC50 ± SEM MCF-7
# Description: (§3) Cytotoxicity assay (Table 5). […] The cytotoxic effect of compounds on cell lines was assessed using the MTT assay as reported previously. Briefly, 10,000 cells/well were plated for 24 h in 96-well plates and, after reaching confluence, the cells were incubated for 48 h with DMSO or in the presence of compounds. Cells were washed twice with warm phosphate-buffered saline (PBS) and further incubated for 2 h with MTT (0.5 mg/mL). The blue formazan crystals were then solubilized by adding 100 μL DMSO/well and optical density of colored solutions was read at 550 nm. Results are expressed as % of MTT reduction compared to untreated control conditions. The calculation of IC50 values was performed by using GraphPad Prism software (San Diego, CA, USA).
# [7] = tested on: T24, DU-145 and MCF-7 human cancer cell lines; assay: MTT cytotoxicity, 48 h, panel summary (range/selective index) over T24, DU-145, MCF-7 vs AG 1523; type: cell-based
# Description: as §3
# [8] = tested on: DU-145 (prostate) human cancer cells; assay: MTT cytotoxicity assay, 48 h, prostate cancer cells; type: cell-based; conditions: three experiments, read-out: IC50 ± SEM DU-145
# Description: as §3
# [9] = tested on: AG 1523 normal human fibroblasts; assay: MTT cytotoxicity assay, 48 h, normal human fibroblasts; type: cell-based; conditions: AG1523, healthy non-tumor fibroblasts, three experiments, read-out: IC50 ± SEM AG 1523
# Description: as §3
# [10] = tested on: T24 (bladder) human cancer cells; assay: MTT cytotoxicity assay, 48 h, bladder cancer cells; type: cell-based; conditions: three experiments, read-out: IC50 ± SEM T24
# Description: as §3
# [11] = SK-MES-1, 72 h, range over AGS, 72 h MTT, read-out: IC50 values range over the cancer cell lines
# [12] = SK-MES-1, mean over AGS, read-out: mean IC50 on cancer cells
Compound,"IC50 [1, 11] [µM]",MSI: Mean Selective Index = IC50 values for fibroblasts/IC50 values tumor cells [1],IC50 [2] [µM],IC50 [3] [µM],IC50 [4] [µM],IC50 [5] [µM],melting point [°C],MSI on lung and bladder cancer cells ([1]; MRC-5 vs SK-MES-1 and J82 only),IC50 [6] [µM],"SI ([7]; AG 1523 fibroblasts vs T24, DU-145, MCF-7)","IC50 ([7]; Homo sapiens, range over T24, DU-145, MCF-7, 48 h MTT, read-out: IC50 range in cancer cells) [µM]",IC50 [8] [µM],IC50 [9] [µM],SI (normal fibroblasts) ([3]; as printed for normal fibroblasts),IC50 [10] [µM],"IC50 [1, 12] [µM]"
"COC(=O)c1c(C)ncc2c1C(=O)C(N[C@@H](CC(C)C)C(=O)OC)=CC2=O [Compound 4b, Methyl 6- and 7-(1-methoxy-4-methyl-1-oxopentan-2-ylamino)-3-methyl-5,8-dioxo-5,8-dihydroisoquinoline-4-carboxylate]",0.58 to 3.18,0.86,1.59 ± 0.07,1.77 ± 0.14,2.22 ± 0.12,2.35 ± 0.09,58.5 to 60.5,,,,,,,,,
COC(=O)c1c(C)ncc2c1C(=O)C(Br)=C(NC(CC(C)C)C(=O)OC)C2=O (stereo not drawn) [Compound 14],,,> 100,> 100,0.92 ± 0.04,2.21 ± 0.17,104.3 to 106.2,> 45,0.5 ± 0.05,2.62,0.5 to 0.67,0.64 ± 0.06,1.57 ± 0.2,> 100,0.67 ± 0.06,
COC(=O)c1c(C)ncc2c1C(=O)C(NC(C(=O)OC)C(C)C)=C(Br)C2=O (stereo not drawn) [Compound 13b],,0.41,2.7 ± 0.14,2.11 ± 0.11,3.9 ± 0.31,8.76 ± 0.61,105 to 106.6,,,,,,,,,
"COC(=O)c1c(C)ncc2c1C(=O)C=C(N[C@@H](Cc1ccccc1)C(=O)OC)C2=O [Compound 6a, Methyl 6- and 7-(1-methoxy-1-oxo-3-phenylpropan-2-ylamino)-3-methyl-5,8-dioxo-5,8-dihydroisoquinoline-4-carboxylate]",,,1.85 ± 0.13,6.73 ± 0.34,2.5 ± 0.15,4.68 ± 0.23,,,,,,,,,,< 4
"COC(=O)c1c(C)ncc2c1C(=O)C=C(N[C@H](C(=O)OC)C(C)C)C2=O [Compound 3a, Methyl 6- and 7-(1-methoxy-3-methyl-1-oxobutan-2-ylamino)-3-methyl-5,8-dioxo-5,8-dihydro-isoquinoline-4-carboxylate]",,1.10,1.94 ± 0.08,4.94 ± 0.25,4.62 ± 0.28,7.49 ± 0.44,,,,,,,,,,
COC(=O)c1c(C)ncc2c1C(=O)C=C(N[C@@H](CCSC)C(=O)OC)C2=O [Compound 5a],,1.42,2.54 ± 0.21,5.22 ± 0.31,2.93 ± 0.11,6 ± 0.32,,,,,,,,,,
COC(=O)c1c(C)ncc2c1C(=O)C(N[C@@H](Cc1ccc(O)cc1)C(=O)OC)=CC2=O [Compound 7b],,1.00,1.53 ± 0.06,3.74 ± 0.26,2.57 ± 0.12,7.11 ± 0.55,76.5 to 78.5,,,,,,,,,
"COC(=O)c1c(C)ncc2c1C(=O)C(Br)=C(NC(C)C(=O)OC)C2=O (stereo not drawn) [Compound 12, Methyl 6-bromo-7-(1-methoxy-1-oxopropan-2-ylamino)-3-methyl-5,8-dioxo-5,8-dihydroisoquinoline-4-carboxylate]",,1.10,2.07 ± 0.11,2.86 ± 0.17,1.96 ± 0.11,3.76 ± 0.26,120.5 to 122,,,,,,,,,
COC(=O)c1c(C)ncc2c1C(=O)C=C(N[C@@H](CC(C)C)C(=O)OC)C2=O [Compound 4a],,1.13,2.97 ± 0.15,5.7 ± 0.29,4.56 ± 0.31,7.65 ± 0.51,,,,,,,,,,
"COC(=O)c1c(C)ncc2c1C(=O)C=C(N[C@@H](C)C(=O)OC)C2=O [Compound 2a, Methyl 6- and 7-(1-methoxy-1-oxopropan-2-ylamino)-3-methyl-5,8-dioxo-5,8-dihydroisoquinoline-4-carboxylate]",,,2.25 ± 0.15,9.04 ± 0.69,2.65 ± 0.19,6.25 ± 0.44,,,,,,,,,,< 4
COC(=O)c1c(C)ncc2c1C(=O)C(Br)=C(NC(C(=O)OC)C(C)C)C2=O (stereo not drawn) [Compound 13a],,1.15,1.92 ± 0.13,2.98 ± 0.21,2.28 ± 0.09,4.01 ± 0.19,105.2 to 107,,,,,,,,,
COC(=O)c1c(C)ncc2c1C(=O)C(Br)=C(NC(Cc1ccccc1)C(=O)OC)C2=O (stereo not drawn) [Compound 15],,1.52,2.08 ± 0.13,4.48 ± 0.27,2.13 ± 0.12,4.61 ± 0.36,125.2 to 127.5,,,,,,,,,
"COC(=O)c1c(C)ncc2c1C(=O)C(N[C@H](Cc1ccccc1)C(=O)OC)=CC2=O [Compound 10b, Methyl 6- and 7-(1-methoxy-1-oxo-3-phenylpropan-2-ylamino)-3-methyl-5,8-dioxo-5,8-dihydroisoquinoline-4-carboxylate]",0.58 to 3.18,0.82,1.98 ± 0.11,1.78 ± 0.12,1.2 ± 0.05,3.03 ± 0.17,71.5 to 73,,,,,,,,,
"COC(=O)c1c(C)ncc2c1C(=O)C=C(N[C@@H](Cc1c[nH]c3ccccc13)C(=O)OC)C2=O [Compound 8a, Methyl 6- and 7-(3-(1H-indol-3-yl)-1-methoxy-1-oxopropan-2-ylamino)-3-methyl-5,8-dioxo-5,8-dihydroisoquinoline-4-carboxylate]",,1.45,2.54 ± 0.18,6.62 ± 0.46,3.63 ± 0.18,7.56 ± 0.52,,,,,,,,,,
